We go through two compounds from patent US20240309360A1, “TRANS-ACTIVATORS AND METHODS AND USE THEREOF” (THE GOVERNING COUNCIL OF THE UNIVERSITY OF TORONTO, priority 2021, published 2024).

Common to all, as to assay type: cell-based, human
For assay [1], the system named is EGFP reporter (7×TetO array, basal CMV promoter) in HEK293T reporter cell line. The assay can be described thus: TAD-seq pooled activation screen of 60-aa fragments fused to PYL1. The essentials: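 60-aa tiles at 20-aa steps from 75 activator proteins, C-terminally fused to PYL1, lentivirally transduced at low MOI into reporter cells co-expressing ABI-dCas9 and promoter gRNA. Recruitment induced with 100 μM abscisic acid for 48 h (DMSO control). Top 1% and next 4% GFP cells sorted; fragments quantified by sequencing, two replicates.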

The test system is the same in assay [2]. The assay can be described thus: Arrayed recruitment assay, PYL1 fusions individually recruited to reporter via ABI1-dCas9 with ABA. Further details: key to independently validated as transactivating fragment: Fragments marked with * were independently validated; call rule not given here. To be noted: fragment fused to PYL1, arrayed format. From the text: Treatment of cells with abscisic acid (ABA) induces an interaction between ABI1 and PYL1, thereby recruiting the potential transcriptional activator to a specific genomic locus defined by the guide RNA (gRNA). As a reporter, a HEK293T cell line that contains a stably integrated construct with a 7×TetO array and a basal CMV promoter driving the expression of EGFP was used (Gao et al., 2016). A monoclonal cell line that expresses ABI1-dCas9 and a single gRNA targeting TetO was generated by lentiviral infection.
(§1) Arrayed recruitment assays. Reporter cells stably co-expressing ABI-dCas9 and TetO gRNA were seeded either on 48-well or 96-well plates (Sarstedt) to reach 50-70% confluency on the day of transfection. 150 ng of each construct to be tested was transfected with polyethylenimine (PEI) at a ratio of 0.6 μl reagent. The day after transfection, recruitment was induced by treatment with ABA (100 μM). […] Inhibitors were dissolved in DMSO to a stock concentration of 10 mM. The final concentrations used were 100 nM for flavopiridol, 300 nM for JQ1, 1 μM for A-485, 2.5 μM for CX-4945 and 3 μM for AZ191. All inhibitors were a kind gift from the Structural Genomics Consortium (SGC). 48 hours after induction, cells were dissociated and resuspended in flow buffer using a liquid handing robot (TECAN) and analyzed by LSR Fortessa (BD). Cells were gated on high EBFP2 and RFP as a measure of gRNA and transfection control, respectively. Flow cytometry data was analyzed using FlowJo (v10).

The test system of assay [3] is EGFP reporter (TetO7) in HEK293T cells. The assay is described as follows: Multi-TAD effectors fused to PYL1 recruited to EGFP reporter. To be noted: PYL1 fusion, 1 μM abscisic acid, 24 or 48 hours. As to the method: Multiple TADs were fused together with PYL1 and tested for transcriptional activity using the PYL1-ABI EGFP reporter system described above. The following TAD fragments were used: CITED1-8 (SEQ ID NO: 47), CITED2-12 (SEQ ID NO: 49), C3orf62-12 (SEQ ID NO: 45), BRD8-25 (SEQ ID NO: 40), ZXDC-12 (SEQ ID NO: 97), KLF7-1 (SEQ ID NO: 72), ATXN7L3-1 (SEQ ID NO: 35), FAM90A1-20 (SEQ ID NO: 60), SPDYE4-3 (SEQ ID NO: 90), YAF2-7 (SEQ ID NO: 96).
Methods: Cells were seeded on 48-well plates. Next day, after cells were between 70-90% confluent, 250 ng of each construct was transfected in each well using (Thermo Fisher Scientific, 11668019) reagent. Each construct was either directly fused TagRFP either directly fused to each component or being co-expressed from the same plasmid was used as a measure of transfection. In each experiment, the same gate for RFP+ cells were used to control for the effect of each construct's expression levels on activity. EGFP reporter cells were expanded from a clonal line to control for level of ABI-dCas9 and gRNA targeting the TetO7 sites upstream of the promoter. For the CD133 induction experiment, a 293T cell line stably expressing ABI-dCas9 and a pool of 5 gRNAs targeting the promoter were used for all activators. CD133 antibody conjugated to APC (Miltenyi Biotec, 130-113-668) was used. […]

For assay [4], the system named is transcriptional activity of 83 transcriptional regulators on the EGFP reporter. The assay can be described thus: Tethered reporter assays in the presence of inhibitors. As to the method: To functionally investigate the connection between transcriptional activators and co-factors, a panel of 83 robust activators was arrayed. Their activation potential was tested using the reporter assay, but now in the presence of small-molecule inhibitors targeting multiple transcriptional co-regulators. Three kinase inhibitors targeting transcriptional kinases (flavopiridol for CDK9, CX-4945 for casein kinase 2, and AZ191 for DYRK1A and DYRK1B), and two compounds inhibiting transcriptional co-factors (A-485 for CBP/p300, and JQ1 for BET family bromodomain proteins) were employed.
as §1
Background: In a reporter assay the amount or activity of a reporter protein is the signal.

Regarding “SPDYE4-3: 60-aa TAD-seq fragment of SPDYE4; SPDYE4 activation domain (DPSPQPQSLGLKRKSEWSDESEEELEEELELERAPEPEDTWVVETLCGLKMKLKRKRASS; listed as Homo sapiens)”, the “Hit high GFP” value in assay [1] (high GFP population (top 1%)) is “hit”. In addition, the “logFC high GFP” value in assay [1] (log 2 fold change of counts, sorted high GFP cells (top 1%) vs unsorted cells, 100 μM ABA 48 hours) turned out to be 4.82. For the same compound, the “logFC medium GFP” value in assay [1] (log 2 fold change of counts, sorted medium GFP cells (top 2-5%) vs unsorted cells, 100 μM ABA 48 hours) turned out to be 2.409. The “Hit medium GFP” value in assay [1] (medium GFP population (top 2-5%)) is on record as “hit”. The “independently validated as transactivating fragment” value in assay [2] is 3*. In addition, the “transcriptional activation of EGFP reporter by TAD fusions” value in assay [3] is given as “weak activity”.

As for `CNC(=O)Nc1ccc2c(c1)CC[C@@]21OC(=O)N(CC(=O)N(Cc2ccc(F)cc2)[C@@H](C)C(F)(F)F)C1=O` [Fragment A-485, A-485], the “effect of inhibitor on activity of the activators” value in assay [4] (100 nM flavopiridol, 300 nM JQ1, 1 μM A-485, 2.5 μM CX-4945, 3 μM AZ191, 100 μM ABA 48 hours) is given as “strongly affected the activity of some but not all transactivators”. Besides, in assay [4] (1 μM A-485), the “effect of inhibitor on activity of CBP/p300 non-interactors” value is on record as “only one of the seven non-interactors was affected”, the “effect of inhibitor on activity of KLF6” value is “no effect” and the “effect of inhibitor on activity of KLF15” value is on record as “inhibited the activity of KLF15”. Also, the “effect of inhibitor on activity of CBP/p300 interactors” value in assay [4] (1 μM A-485, interactors by AP-MS and BioID) was “four of the six CBP/p300 interactors was significantly decreased”. Moreover, in assay [4] (1 μM A-485 or 300 nM JQ1, e.g. JAZF1 and KLF6), the “effect of inhibitor on activity of NuA4 complex interactors” value is reported as “not significantly affected”. Besides, the “sensitivity of C3orf62-Cterm and SRF-C3orf62 reporter activation to inhibitor” value in assay [4] (CBP/p300 inhibition) was “highly sensitive”.
